What was measured:
GCN2 [1] = target: T1, GCN2 (Homo sapiens, UniProt Q9P2K8); test: GCN2 enzyme assay (TR-FRET Lanthascreen, GFP-eIF2alpha phosphorylation); assay type: biochemical; details: 10 μM ATP, 80 nM GFP-eIF2a, 30 nM GCN2
Summary of the method: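 Kinase reaction with 10 μM ATP and 80 nM GFP-labelled eIF2alpha substrate at room temperature, stopped with EDTA. Phospho-eIF2alpha detected by TR-FRET between antibody and GFP-substrate, excitation at 340 nm.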
Target sequence in this assay (Q9P2K8 whole entry, species assumed): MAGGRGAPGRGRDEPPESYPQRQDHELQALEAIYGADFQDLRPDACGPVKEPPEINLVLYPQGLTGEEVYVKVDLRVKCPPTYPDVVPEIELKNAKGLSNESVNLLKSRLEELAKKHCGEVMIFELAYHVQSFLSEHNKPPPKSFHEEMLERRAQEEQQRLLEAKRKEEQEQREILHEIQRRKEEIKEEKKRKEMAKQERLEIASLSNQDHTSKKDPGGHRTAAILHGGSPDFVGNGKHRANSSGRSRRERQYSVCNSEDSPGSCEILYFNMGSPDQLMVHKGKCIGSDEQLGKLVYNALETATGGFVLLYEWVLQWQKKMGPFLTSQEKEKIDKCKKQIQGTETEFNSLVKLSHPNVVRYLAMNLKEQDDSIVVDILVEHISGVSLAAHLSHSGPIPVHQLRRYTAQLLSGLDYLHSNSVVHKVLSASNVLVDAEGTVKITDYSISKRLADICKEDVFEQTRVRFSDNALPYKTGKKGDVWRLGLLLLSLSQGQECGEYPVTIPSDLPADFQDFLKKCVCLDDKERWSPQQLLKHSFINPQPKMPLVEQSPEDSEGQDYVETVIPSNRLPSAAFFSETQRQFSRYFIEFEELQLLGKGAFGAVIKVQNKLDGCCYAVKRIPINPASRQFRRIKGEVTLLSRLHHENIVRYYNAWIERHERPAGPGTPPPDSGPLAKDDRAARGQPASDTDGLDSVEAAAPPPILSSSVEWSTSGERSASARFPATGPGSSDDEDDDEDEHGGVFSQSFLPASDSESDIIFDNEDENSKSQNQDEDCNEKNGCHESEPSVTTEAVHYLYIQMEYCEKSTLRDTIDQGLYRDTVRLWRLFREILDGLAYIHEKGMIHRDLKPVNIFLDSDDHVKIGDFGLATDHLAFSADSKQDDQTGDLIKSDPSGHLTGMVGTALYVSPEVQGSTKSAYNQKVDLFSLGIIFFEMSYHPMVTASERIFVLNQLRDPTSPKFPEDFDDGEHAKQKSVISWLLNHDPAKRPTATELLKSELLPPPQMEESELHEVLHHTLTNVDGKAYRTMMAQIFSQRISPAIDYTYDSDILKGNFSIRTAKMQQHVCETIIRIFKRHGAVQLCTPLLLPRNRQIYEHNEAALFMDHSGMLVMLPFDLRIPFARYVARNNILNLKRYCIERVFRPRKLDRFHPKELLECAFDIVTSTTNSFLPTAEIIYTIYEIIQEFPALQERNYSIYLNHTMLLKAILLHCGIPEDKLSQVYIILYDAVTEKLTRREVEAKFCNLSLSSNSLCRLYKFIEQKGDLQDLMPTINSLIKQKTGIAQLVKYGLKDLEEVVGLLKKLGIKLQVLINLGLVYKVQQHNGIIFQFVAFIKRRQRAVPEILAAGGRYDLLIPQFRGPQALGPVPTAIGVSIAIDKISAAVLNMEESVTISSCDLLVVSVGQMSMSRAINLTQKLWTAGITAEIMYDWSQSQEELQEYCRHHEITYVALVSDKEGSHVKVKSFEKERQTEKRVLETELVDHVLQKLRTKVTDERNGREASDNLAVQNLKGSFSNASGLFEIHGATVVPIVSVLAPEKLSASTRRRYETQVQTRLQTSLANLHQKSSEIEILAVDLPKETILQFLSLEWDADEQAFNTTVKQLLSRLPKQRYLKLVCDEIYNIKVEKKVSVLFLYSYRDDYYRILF

GCN2 [2] = target: T1, GCN2; test: Cellular assay of GCN2 activity (phospho-eIF2alpha immunocytochemistry after tryptophanol); assay type: cell-based; parameters: endogenous in cells; host or cells: U2OS; details: Human U2OS cells, 2 h compound, 600 μM tryptophanol 30 min
Procedure: Cellular Assay for the Determination of Compound Activities
Human U2OS cells (2000 cells/well) are seeded into 384-well plates and incubated for 20 hours.
The next day, the cells are treated with the test compounds and incubated for 2 hours. Then, tryptophanol, at a final concentration of 600 μM, is added to the cells and those are incubated for 30 minutes.
The analysis of cellular GCN2 activities is done by immunocytochemistry.
Briefly, cells are fixated on the well surfaces by formaldehyde and permeabilised with Triton X-100.
The analysis and quantification of phosphorylated GCN2 is done by scanning the plates in the Acumen Explorer system (TTPLabtech). The obtained data are normalised against the untreated control wells (DMSO only) and expressed as % effect values. The determination of IC50 values is done by using the Graph Pad Prism software.
Target sequence in this assay (Q9P2K8 whole entry): as the sequence (Q9P2K8 whole entry, species assumed) above

GSK3α(h) = GSK3α(h) (Homo sapiens, UniProt P49840); test: GSK3α radiometric kinase assay (33P-ATP, phospho GS2 peptide); assay type: biochemical; details: read-out: IC50 GSK3α (enzyme assay)
Procedure: GSK3α(h) is incubated with 8 mM MOPS pH 7,0, 0,2 mM EDTA, 20 μM
[…](p)EDEEE (phosphor GS2 peptide), 10 mM Mg-acetate and [gamma-33P-ATP](specific activity approx. 500 cpm/Pmol, concentration as required). The reaction is initiated by the addition of the MgATP. After incubation for 40 minutes at the room temperature, the Reaction is stopped by the addition of 3% phosphoric acid solution. 10 μL of reaction is then spotted onto a P30 filtermat and washed three times for 5 minutes in 50 mM phosphoric acid and once in methanol prior to drying and scintillation counting.

Sequence of GSK3α(h) (P49840 whole entry): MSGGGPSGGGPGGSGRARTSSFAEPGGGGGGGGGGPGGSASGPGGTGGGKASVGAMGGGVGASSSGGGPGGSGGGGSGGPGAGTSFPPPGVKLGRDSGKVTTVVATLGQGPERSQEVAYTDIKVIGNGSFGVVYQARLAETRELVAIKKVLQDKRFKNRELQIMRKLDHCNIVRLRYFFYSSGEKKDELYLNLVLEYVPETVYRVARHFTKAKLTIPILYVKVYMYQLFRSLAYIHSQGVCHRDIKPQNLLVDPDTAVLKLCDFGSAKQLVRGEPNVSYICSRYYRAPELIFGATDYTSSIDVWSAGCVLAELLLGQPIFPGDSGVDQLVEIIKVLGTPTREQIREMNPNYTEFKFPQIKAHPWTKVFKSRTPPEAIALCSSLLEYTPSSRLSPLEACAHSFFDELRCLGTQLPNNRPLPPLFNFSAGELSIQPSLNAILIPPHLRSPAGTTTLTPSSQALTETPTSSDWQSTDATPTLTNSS

| Structure (SMILES) | IC50 (GCN2 [1]) [nM] | IC50 (GCN2 [2]) [nM] | IC50 (GSK3α(h)) [nM] |
| --- | --- | --- | --- |
| Cn1cc(-c2ccc(-n3nnc4cnc(N[C@H]5CC[C@H](O)C5)nc43)cc2)cn1 (relative stereo) [A51, trans-3-{3-[4-(1-methyl-1H-pyrazol-4-yl)-phenyl]-3H-[1,2,3]triazolo[4,5-d]pyrimidin-5-ylamino}-cyclopentanol] | < 1000 | 1000 to 5000 | – |
| OCCn1cc(-c2ccc(-n3nnc4cnc(N[C@H]5CC[C@H](O)C5)nc43)cc2)cn1 (relative stereo) [A57, trans-3-(3-{4-[1-(2-hydroxy-ethyl)-1H-pyrazol-4-yl]-phenyl}-3H-[1,2,3]triazolo[4,5-d]pyrimidin-5-ylamino)-cyclopentanol] | < 1000 | 1000 to 5000 | – |
| COc1ccc(-n2nnc3cnc(NC4CC4)nc32)cc1 [A4, cyclopropyl-[3-(4-methoxy-phenyl)-3H-[1,2,3]triazolo[4,5-d]pyrimidin-5-yl]-amine] | < 1000 | < 1000 | – |
| COc1ccc(-n2nnc3cnc(NC4CCN(C(=O)CCN(C)C)CC4)nc32)cc1 [A49, 3-dimethylamino-1-{4-[3-(4-methoxy-phenyl)-3H-[1,2,3]triazolo[4,5-d]pyrimidin-5-ylamino]-piperidin-1-yl}-propan-1-one] | < 1000 | 5000 to 10000 | – |
| COCCn1cc(-c2ccc(-n3nnc4cnc(N[C@H]5CC[C@H](N)CC5)nc43)cc2)cn1 [A52, N-(3-{4-[1-(2-methoxy-ethyl)-1H-pyrazol-4-yl]-phenyl}-3H-[1,2,3]triazolo[4,5-d]-pyrimidin-5-yl)-cyclohexane-1,4-diamine] | < 1000 | 1000 to 5000 | – |
| N[C@H]1CC[C@H](Nc2ncc3nnn(-c4ccc(N5CCOCC5)cc4)c3n2)CC1 [A64, N-[3-(4-morpholin-4-yl-phenyl)-3H-[1,2,3]triazolo[4,5-d]pyrimidin-5-yl]-cyclohexane-1,4-diamine] | < 1000 | 1000 to 5000 | – |
| N[C@H]1CC[C@H](Nc2ncc3nnn(-c4ccc(N5CC[C@@H](O)C5)cc4)c3n2)CC1 [A70, (R)-1-{4-[5-((trans)-4-amino-cyclohexylamino)-[1,2,3]triazolo[4,5-d]pyrimidin-3-yl]-phenyl}-pyrrolidin-3-ol] | < 1000 | 5000 to 10000 | – |
| COc1ccc(-n2nnc3cnc(N[C@H]4CC[C@H](CO)C4)nc32)cc1 [A111, {(1S,3S)-3-[3-(4-methoxy-phenyl)-3H-[1,2,3]triazolo[4,5-d]pyrimidin-5-ylamino]-cyclopentyl}-methanol] | < 1000 | – | < 1000 |
| Cn1cc(-c2ccc(-n3nnc4cnc(N[C@@H]5CCNC5)nc43)cc2)cn1 [A116, {3-[4-(1-methyl-1H-pyrazol-4-yl)-phenyl]-3H-[1,2,3]triazolo[4,5-d]pyrimidin-5-yl}-(R)-pyrrolidin-3-yl-amine] | < 1000 | 5000 to 10000 | – |
| COc1ccc(-n2nnc3cnc(N[C@@H]4CCN(C(=O)CCN5CCN(C)CC5)C4)nc32)cc1 [A132, 1-{(R)-3-[3-(4-methoxy-phenyl)-3H-[1,2,3]triazolo[4,5-d]pyrimidin-5-ylamino]-pyrrolidin-1-yl}-3-(4-methyl-piperazin-1-yl)-propan-1-one] | < 1000 | – | < 1000 |
| NC(=O)[C@H]1CC[C@@H](Nc2ncc3nnn(-c4ccc(N5CCCC5)cc4)c3n2)C1 [A138, (1S,3R)-3-[3-(4-pyrrolidin-1-yl-phenyl)-3H-[1,2,3]triazolo[4,5-d]pyrimidin-5-ylamino]-cyclopentanecarboxylic acid amide] | < 1000 | – | < 1000 |
| COc1ccc(-n2nnc3cnc(NCCCC(N)=O)nc32)cc1 [A142, 4-[3-(4-methoxy-phenyl)-3H-[1,2,3]triazolo[4,5-d]pyrimidin-5-ylamino]-butyramide] | < 1000 | – | < 1000 |
| COc1ccc(-n2nnc3cnc(N[C@H]4CC[C@H](C(N)=O)CC4)nc32)cc1 [A143, 4-[3-(4-methoxy-phenyl)-3H-[1,2,3]triazolo[4,5-d]pyrimidin-5-ylamino]-cyclohexanecarboxylic acid amide] | < 1000 | – | < 1000 |
| COc1ccc(-n2nnc3cnc(NC(C)CC(N)=O)nc32)cc1 (centres unmarked) [A144, 3-[3-(4-methoxy-phenyl)-3H-[1,2,3]triazolo[4,5-d]pyrimidin-5-ylamino]-butyramide] | < 1000 | – | < 1000 |
| NC(=O)[C@H]1CC[C@@H](Nc2ncc3nnn(-c4ccc5nsnc5c4)c3n2)C1 [A172, (1S,3R)-3-(3-benzo[1,2,5]thiadiazol-5-yl-3H-[1,2,3]triazolo[4,5-d]pyrimidin-5-ylamino)-cyclopentanecarboxylic acid amide] | < 1000 | – | < 1000 |
| COc1ccc(-n2nnc3cnc(N[C@@H]4CC[C@@H](C(N)=O)C4)nc32)cn1 [A173, (1R,3R)-3-[3-(6-methoxy-pyridin-3-yl)-3H-[1,2,3]triazolo[4,5-d]pyrimidin-5-ylamino]-cyclopentanecarboxylic acid amide] | < 1000 | – | < 1000 |
| NC(=O)[C@@H]1CC[C@@H](Nc2ncc3nnn(-c4ccc5nsnc5c4)c3n2)C1 [A174, (1R,3R)-3-(3-benzo[1,2,5]thiadiazol-5-yl-3H-[1,2,3]triazolo[4,5-d]pyrimidin-5-ylamino)-cyclopentanecarboxylic acid amide] | < 1000 | – | < 1000 |
| COc1ccc(-n2nnc3cnc(N[C@@H]4CC[C@@H](C(N)=O)C4)nc32)nc1 [A175, (1R,3R)-3-[3-(5-methoxy-pyridin-2-yl)-3H-[1,2,3]triazolo[4,5-d]pyrimidin-5-ylamino]-cyclopentanecarboxylic acid amide] | < 1000 | – | < 1000 |
| NC(=O)[C@@H]1CC[C@@H](Nc2ncc3nnn(-c4cccc(I)c4)c3n2)C1 [A176, (1R,3R)-3-[3-(3-iodo-phenyl)-3H-[1,2,3]triazolo[4,5-d]pyrimidin-5-ylamino]-cyclopentanecarboxylic acid amide] | < 1000 | – | < 1000 |

Further lines, results first:

| IC50 (GCN2 [1]) [nM] | IC50 (GCN2 [2]) [nM] | IC50 (GSK3α(h)) [nM] | Structure (SMILES) |
| --- | --- | --- | --- |
| < 1000 | – | < 1000 | O[C@@H]1CC[C@@H](Nc2ncc3nnn(-c4ccc(N5CCCC5)cc4)c3n2)C1 (relative stereo) [A198, (trans)-3-[3-(4-pyrrolidin-1-yl-phenyl)-3H-[1,2,3]triazolo[4,5-d]pyrimidin-5-ylamino]-cyclopentanol] |
| < 1000 | – | < 1000 | Cc1nc2ccc(-n3nnc4cnc(N[C@@H]5CC[C@@H](O)C5)nc43)cc2o1 (relative stereo) [A199] |
| < 1000 | – | < 1000 | O[C@@H]1CC[C@@H](Nc2ncc3nnn(-c4ccc5nsnc5c4)c3n2)C1 (relative stereo) [A200, (trans)-3-(3-benzo[1,2,5]thiadiazol-5-yl-3H-[1,2,3]triazolo[4,5-d]pyrimidin-5-ylamino)-cyclopentanol] |
| < 1000 | – | < 1000 | COc1ccc(-n2nnc3cnc(N[C@H]4CC[C@@H](S(C)(=O)=O)C4)nc32)cc1 (relative stereo) [A264, ((cis)-3-methanesulfonyl-cyclopentyl)-[3-(4-methoxy-phenyl)-3H-[1,2,3]triazolo[4,5-d]pyrimidin-5-yl]-amine] |
| < 1000 | – | < 1000 | O[C@@H]1CC[C@@H](Nc2ncc3nnn(-c4ccc(-c5cnn(CCc6nnn[nH]6)c5)cc4)c3n2)C1 (relative stereo) [A266, trans-3-[3-(4-{1-[2-(1H-Tetrazol-5-yl)-ethyl]-1H-pyrazol-4-yl}-phenyl)-3H-[1,2,3]triazolo[4,5-d]pyrimidin-5-ylamino]-cyclopentanol] |
| < 1000 | 5000 to 10000 | – | O[C@@H]1CC[C@@H](Nc2ncc3nnn(-c4ccc(OC[C@H](O)C(F)(F)F)cc4)c3n2)C1 (stereo in doubt) [A205, (trans)-3-{3-[4-((S)-3,3,3-trifluoro-2-hydroxy-propoxy)-phenyl]-3H-[1,2,3]triazolo[4,5-d]pyrimidin-5-ylamino}-cyclopentanol] |
| < 1000 | – | < 1000 | NC(=O)[C@@H]1CC[C@@H](Nc2ncc3nnn(-c4ccc(-c5cnn(CCc6nnn[nH]6)c5)cc4)c3n2)C1 [A265, (1R,3R)-3-[3-(4-{1-[2-(1H-tetrazol-5-yl)-ethyl]-1H-pyrazol-4-yl}-phenyl)-3H-[1,2,3]triazolo[4,5-d]pyrimidin-5-ylamino]-cyclopentanecarboxylic acid amide] |
| < 1000 | – | < 1000 | COc1ccc(-n2nnc3cnc(N[C@@H]4CCN(S(N)(=O)=O)C4)nc32)cc1 [A270, (R)-3-[3-(4-methoxy-phenyl)-3H-[1,2,3]triazolo[4,5-d]pyrimidin-5-ylamino]-pyrrolidine-1-sulfonic acid amide] |
| < 1000 | – | < 1000 | Cn1cc(-c2ccc(-n3nnc4cnc(N[C@@H]5CCN(C(=O)CCCN6CCNCC6)C5)nc43)cc2)cn1 [A271, 1-((R)-3-{3-[4-(1-methyl-1H-pyrazol-4-yl)-phenyl]-3H-[1,2,3]triazolo[4,5-d]pyrimidin-5-ylamino}-pyrrolidin-1-yl)-4-piperazin-1-yl-butan-1-one] |

— patent US9855268B2, “Triazolo[4,5-d]pyrimidine derivatives” (Merck Patent GmbH, priority 2013, dated 2018)
